Measured values from ChEMBL document CHEMBL4196191, “Lowering Lipophilicity by Adding Carbon: One-Carbon Bridges of Morpholines and Piperazines” (J Med Chem, 2018).

How the values were obtained:
[1] = Intrinsic clearance in rat hepatocytes assessed per million cells; assay type: ADME, cell-based, Hepatocyte; settings: read-out: CLH
[2] = Intrinsic permeability in human Caco2 cells; assay type: ADME, cell-based; settings: Caco-2
[3] = target: Voltage-gated inwardly rectifying potassium channel KCNH2 (Homo sapiens, UniProt Q12809); test: Inhibition of human ERG
Chain of Voltage-gated inwardly rectifying potassium channel KCNH2 (Q12809 whole entry): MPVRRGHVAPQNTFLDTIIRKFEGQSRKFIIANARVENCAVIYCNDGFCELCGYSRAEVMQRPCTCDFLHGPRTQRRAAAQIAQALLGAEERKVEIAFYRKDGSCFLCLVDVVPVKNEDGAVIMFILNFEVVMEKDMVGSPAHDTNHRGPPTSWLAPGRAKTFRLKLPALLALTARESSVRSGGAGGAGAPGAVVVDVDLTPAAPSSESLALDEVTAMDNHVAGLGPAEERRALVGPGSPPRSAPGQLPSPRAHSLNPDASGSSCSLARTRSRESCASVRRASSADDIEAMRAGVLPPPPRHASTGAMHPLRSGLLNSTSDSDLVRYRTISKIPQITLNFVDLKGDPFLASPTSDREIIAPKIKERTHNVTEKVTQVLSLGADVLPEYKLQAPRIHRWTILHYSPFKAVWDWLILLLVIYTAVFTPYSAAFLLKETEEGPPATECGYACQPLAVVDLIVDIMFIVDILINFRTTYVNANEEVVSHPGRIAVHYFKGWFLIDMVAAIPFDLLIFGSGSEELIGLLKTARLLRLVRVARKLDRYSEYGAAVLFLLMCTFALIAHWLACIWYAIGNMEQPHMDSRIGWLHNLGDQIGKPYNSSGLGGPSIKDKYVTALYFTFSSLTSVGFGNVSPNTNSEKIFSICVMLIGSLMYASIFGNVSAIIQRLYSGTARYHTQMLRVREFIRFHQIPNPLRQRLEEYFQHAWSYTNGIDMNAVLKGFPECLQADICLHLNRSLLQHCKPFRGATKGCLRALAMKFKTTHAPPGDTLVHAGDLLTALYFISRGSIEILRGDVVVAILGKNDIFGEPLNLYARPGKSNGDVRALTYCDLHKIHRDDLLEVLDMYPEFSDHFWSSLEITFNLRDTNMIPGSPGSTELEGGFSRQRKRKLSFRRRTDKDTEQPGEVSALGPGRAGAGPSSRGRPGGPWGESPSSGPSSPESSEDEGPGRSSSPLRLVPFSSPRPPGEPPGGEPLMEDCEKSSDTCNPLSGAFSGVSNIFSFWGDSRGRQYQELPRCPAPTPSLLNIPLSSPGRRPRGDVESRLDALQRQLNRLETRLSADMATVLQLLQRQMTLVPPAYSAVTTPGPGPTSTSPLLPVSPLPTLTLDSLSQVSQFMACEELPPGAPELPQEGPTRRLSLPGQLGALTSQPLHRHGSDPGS

[4] = Distribution coefficient, log D of the compound in buffer/octanol solution by shake-flask method; assay type: physicochemical
[5] = Dissociation constant, pKa of the compound (morpholine); assay type: physicochemical

Compound	hepatocyte CLint [1]	Papp [2]	IC50 [3]	logD [4]	pKa [5]
Cc1c[nH]c2ncnc(O[C@H]3CC[C@H](N4C[C@@H]5C[C@H]4CO5)CC3)c12	36 µL/min/1e6 cells	29 ×10⁻⁶ cm/s	> 39.8 µM	2	
Cc1c[nH]c2ncnc(O[C@H]3CC[C@H](N4C[C@H]5C[C@@H]4CO5)CC3)c12	110 µL/min/1e6 cells	25 ×10⁻⁶ cm/s	> 39.8 µM	1.8	8.1
Cc1c[nH]c2ncnc(O[C@H]3CC[C@H](N4CCOCC4)CC3)c12	180 µL/min/1e6 cells	33 ×10⁻⁶ cm/s	> 39.8 µM	2.6	7.5
Cc1c[nH]c2ncnc(O[C@H]3CC[C@H](N4CCO[C@H](C)C4)CC3)c12	210 µL/min/1e6 cells	27 ×10⁻⁶ cm/s	> 39.8 µM	3.1	
Cc1c[nH]c2ncnc(O[C@H]3CC[C@H](N4CCO[C@@H](C)C4)CC3)c12	140 µL/min/1e6 cells	31 ×10⁻⁶ cm/s	25.1 µM	3	
